For 1 molecule, IC50 results are on record in PMC5166496 (International Journal of Biological Sciences, 2016).

The target in the assay is T1, SIRT1 (Homo sapiens, UniProt Q96EB6).
T1 sequence (Q96EB6 2-747): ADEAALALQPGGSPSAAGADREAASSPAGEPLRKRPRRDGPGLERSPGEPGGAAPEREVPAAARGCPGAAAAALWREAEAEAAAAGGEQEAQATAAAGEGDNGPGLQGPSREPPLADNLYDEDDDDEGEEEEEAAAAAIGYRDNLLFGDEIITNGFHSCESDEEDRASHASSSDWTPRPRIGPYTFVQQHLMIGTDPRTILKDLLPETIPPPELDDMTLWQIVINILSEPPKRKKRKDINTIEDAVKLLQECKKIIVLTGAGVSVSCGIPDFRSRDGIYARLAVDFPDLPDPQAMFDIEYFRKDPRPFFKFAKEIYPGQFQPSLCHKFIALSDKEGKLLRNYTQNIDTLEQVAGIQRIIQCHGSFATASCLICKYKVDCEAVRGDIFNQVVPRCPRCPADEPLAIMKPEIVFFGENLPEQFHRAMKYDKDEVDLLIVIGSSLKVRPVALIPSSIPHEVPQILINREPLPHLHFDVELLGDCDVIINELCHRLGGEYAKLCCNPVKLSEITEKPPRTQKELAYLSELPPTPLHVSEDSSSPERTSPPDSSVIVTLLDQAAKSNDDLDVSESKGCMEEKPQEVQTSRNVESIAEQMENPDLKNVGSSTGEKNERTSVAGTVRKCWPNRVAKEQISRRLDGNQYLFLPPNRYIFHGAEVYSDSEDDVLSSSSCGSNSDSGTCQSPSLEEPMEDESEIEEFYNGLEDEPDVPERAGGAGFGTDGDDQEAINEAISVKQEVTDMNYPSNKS
The experiment in a line: SensoLyte […] fluorimetric SIRT1 deacetylase activity assay kit. Type of assay: biochemical.

For `CC(C)(C)c1cc(C=C2C(=O)NC(=S)NC2=O)cc(C(C)(C)C)c1O` [MHY2256, 5-(3,5-Di-tert-butyl-4-hydroxybenzylidene)-2-thioxodihydropyrimidine-4,6(1H,5H)-dione], the IC50 came out at 270 µM.

Broadly, the IC50 is the midpoint of a concentration-inhibition curve.
